The source of these data is patent US20080113347A1, “Method for the in Vitro Diagnosis and Prognosis of Demyelinating Diseases, and for the Development of Drugs Against Demyelinating Diseases” (priority 2003, published 2008).

Where “and” joins values, the source holds several entries; their conditions need not be identical. Equal entries are not always repeated.

The test concerns dusp6 gene expression. Kind of test: Real time quantitative RT-PCR of dusp6 expression in primary oligodendrocyte cultures. It counts as cell-based, rat. The note with it: for Experimental dusp6 crossing points (Cp), single replicas: replicas 1 and 2; for Dusp6 overexpression values (Fold Change) with regard to the untreated control, Ratio: standardized to GAPDH. Here is the method:
The method used consists of reverse transcription of mRNA to cDNA and its subsequent amplification into a LightCycler equipment (Roche), using SYBR Green for the detection of the amplified product. Real time quantification is carried out, and it allows calculating the relative expression of the sequence in different samples in the linear amplification phase of the reaction.
Samples: Primary oligodendrocyte culture samples treated with AMPA were analyzed. The samples came from cultures different from those analyzed with DNA microarrays. 4 cultures were carried out:
control: untreated cultured oligodendrocytes
ampa 2: oligodendrocytes treated for 2 minutes with 10 μM AMPA and collected after treatment
ampa 10: oligodendrocytes treated for 10 minutes with 10 μM AMPA collected after treatment
ampa 15: oligodendrocytes treated for 15 minutes with 10 μM AMPA and collected 60 minutes later.
Real time quantitative RT-PCR. The total RNA of each one of the cultures was obtained by homogenizing the cells in TRIzol® Reagent (Life Technologies) following the supplier's recommendations. The resulting total RNA was cleaned with the RNeasy kit (QIAGEN) (Chomczynski P. et al., Anal. Biochem., 1987, 162: 156; Chomczynski P., Biotechniques, 1993, 15: 532). The total RNA samples were conserved at −80° C. from the moment they were obtained until they were used. The RNA was spectrophotometrically quantified and 5 μg of total RNA were digested with DNase (2 U/μl) of Ambion at a concentration of 2 U per μg of RNA, for 30 minutes at 37° C.
1 μg of RNA treated with DNAse as a starting material was used for the synthesis of the first cDNA strand with the reverse transcriptase enzyme SuperScript™ II RNase (Life Technologies), using an oligo-dT oligonucleotide as a primer which contained the sequence of the promoter of the phage T7 RNA polymerase. Aliquots of cDNA diluted to the working concentration were used.
Synthesized cDNA was amplified using specific primers of the rat dusp6 gene (SEQ ID NO: 1 and SEQ ID NO: 2), and of the gene encoding the rat protein glyceraldehyde 3-phosphate dehydrogenase, Genebank accession number NM_017008 (SEQ ID NO:21 and SEQ ID NO:22). Real time PCR reactions were prepared using the LightCycler-FastStart DNA master SYBR Green I kit (Roche) following the manufacturer's instructions. The amplification program consisted of […] for 10 min (“hot start”) followed by 45 95° C. cycles (denaturation) for 10 seconds, 60° C. (annealing) for 5 seconds, 72° C. (amplification and fluorescence acquisition) for 10 seconds. The melting curve analysis program consisted of a one-pulse cycle of 95° C., 65° C. for 15 seconds, and a 95° C. pulse during the amplification and acquisition step.
First, specificity of the PCR products was determined by analyzing the melting curves. Subsequently, as a relative measurement of gene expression, the ratio between the abundance of dusp6 transcribed mRNAs and the abundance of GAPDH transcribed mRNAS was calculated, and the data of the ratio was standardized in each one of the treated samples on the basis of control sample values. To calculate efficiency of the PCR reactions (dusp6 and GAPDH), a standard curve was constructed for each gene sequence carried out with cDNA serial dilutions. The template cDNA concentrations for the reactions on the standard curve were arbitrarily given the values 2×, 0.5×, 0.2× and 0.02×. The crossing point values for each one of the reactions were used to construct the standard curve: y=m×+b, where m is the slope and b is the intersection point of the line on the axis of ordinates. Starting RNA concentration values in each sample were obtained from the data of the line using the following formula: […]
The change rate at each point was obtained by dividing the concentration values standardized in comparison to the concentration values in the control.

[1] abbreviates: 10 μM AMPA 2 minutes, collected after treatment.
Where [2] appears, read: 10 μM AMPA 10 minutes, collected after treatment.
[3] abbreviates: 10 μM AMPA 15 minutes, collected 60 minutes later.

Consider `Cc1onc(O)c1CC(N)C(=O)O` (stereo not drawn) [AMPA, α-amino-3-hydroxy-5-methyl-4-isoxazolepropionic acid], for which, under setting [1], the “Experimental dusp6 crossing points (Cp), Mean” value was determined as 30.5; the “Experimental dusp6 crossing points (Cp), single replicas” value is 30.46 and 30.54; the “Dusp6 overexpression values (Fold Change) with regard to the untreated control, Ratio” value was 1.7 fold. Besides, under setting [2], the “Experimental dusp6 crossing points (Cp), Mean” value worked out at 32.23; the “Experimental dusp6 crossing points (Cp), single replicas” value is 32.15 and 32.31; the “Dusp6 overexpression values (Fold Change) with regard to the untreated control, Ratio” value turned out to be 0.9 fold. Also, under setting [3], the “Experimental dusp6 crossing points (Cp), Mean” value came to 29.67; the “Experimental dusp6 crossing points (Cp), single replicas” value was 29.73 and 29.61; the “Dusp6 overexpression values (Fold Change) with regard to the untreated control, Ratio” value came to 2.7 fold.
